{
  "source": "patent US10988459B2",
  "about": "(priority 2015, dated 2021)",
  "note": "pKi: −log10 of the molar value.",
  "data": [
    {"target": "human RIP1 kinase domain (2-375) (Homo sapiens (Human), UniProt Q13546)", "sequence (Q13546 2-375)": "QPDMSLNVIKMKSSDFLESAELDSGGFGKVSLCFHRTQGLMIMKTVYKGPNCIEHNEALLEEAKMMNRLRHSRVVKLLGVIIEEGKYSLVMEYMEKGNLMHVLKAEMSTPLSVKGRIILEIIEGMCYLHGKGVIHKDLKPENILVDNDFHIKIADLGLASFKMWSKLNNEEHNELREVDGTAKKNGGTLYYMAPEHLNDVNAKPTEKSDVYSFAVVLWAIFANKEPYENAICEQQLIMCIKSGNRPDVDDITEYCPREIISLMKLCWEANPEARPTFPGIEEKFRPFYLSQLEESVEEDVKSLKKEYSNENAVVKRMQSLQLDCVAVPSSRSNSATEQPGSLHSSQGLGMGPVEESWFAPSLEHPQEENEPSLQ", "experiment": "biochemical", "assay_type": "biochemical", "details": "Table 1; apparent Ki (Morrison tight-binding fit); 50 nM RIP1 kinase domain, 50 uM ATP, 2 hours incubation; read-out: RIP1 Ki", "how_it_was_run": "(§1)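 50 nM purified kinase domain from baculovirus-infected insect cells, incubated 2 h with compound in 50 mM Hepes pH 7.5, 30 mM MgCl2, 1 mM DTT, 50 uM ATP, 0.002% Brij-35, 0.5% DMSO. ADP formation read by Transcreener FP at 633 nm excitation. Ki^app fitted with the Morrison tight-binding equation.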", "values": [
      {"smiles": "CN1C(=O)[C@@H](NC(=O)c2ncn(Cc3ccccc3)n2)CCn2nccc21", "note": "[Example 73, (S)-1-benzyl-N-(4-methyl-5-oxo-5,6,7,8-tetrahydro-4H-pyrazolo[1,5-a][1,3]diazepin-6-yl)-1H-1,2,4-triazole-3-carboxamide]", "pKi": 7.57},
      {"smiles": "CN1C(=O)[C@@H](NC(=O)c2nnc(Cc3ccccc3)[nH]2)CCn2nc(C3CC3)cc21", "note": "[Example 79, (S)-5-benzyl-N-(2-cyclopropyl-4-methyl-5-oxo-5,6,7,8-tetrahydro-4H-pyrazolo[1,5-a][1,3]diazepin-6-yl)-4H-1,2,4-triazole-3-carboxamide]", "pKi": 7.47},
      {"smiles": "O=C(N[C@H]1COc2[nH]ncc2NC1=O)c1cn(Cc2ccc(F)c(F)c2)cn1", "note": "[Example 17, 1-[(3,4-difluorophenyl)methyl]-N-[(6S)-5-oxo-1,4,6,7-tetrahydropyrazolo[3,4-b][1,4]oxazepin-6-yl]imidazole-4-carboxamide]", "pKi": "< 5.00"},
      {"smiles": "CN1C(=O)[C@@H](NC(=O)c2nnc3ccc(C(F)(F)F)nn23)COc2ccccc21", "note": "[Example 81, (S)-N-(5-methyl-4-oxo-2,3,4,5-tetrahydrobenzo[b][1,4]oxazepin-3-yl)-6-(trifluoromethyl)-[1,2,4]triazolo[4,3-b]pyridazine-3-carboxamide]", "pKi": 6.25}
    ]},
    {"target": "human RIP1 kinase domain (2-375) (Homo sapiens (Human), UniProt Q13546)", "experiment": "biochemical", "assay_type": "biochemical", "details": "Table 5; apparent Ki (Morrison tight-binding fit); 50 nM RIP1 kinase domain, 50 uM ATP, 2 hours incubation; read-out: Ki", "how_it_was_run": "as §1", "values": [
      {"smiles": "CCOCCc1cc2n(n1)CC[C@H](NC(=O)c1ncn(Cc3ccccc3F)n1)C(=O)N2C", "note": "[Example 763]", "pKi": 7.14},
      {"smiles": "CN1C(=O)C(NC(=O)c2ncn(Cc3ccccc3)n2)CCn2nc(Cn3cccn3)cc21", "note": "(racemic) [Example 705, 1-benzyl-N-[4-methyl-5-oxo-2-(pyrazol-1-ylmethyl)-7,8-dihydro-6H-pyrazolo[1,5-a][1,3]diazepin-6-yl]-1,2,4-triazole-3-carboxamide]", "pKi": 6.94}
    ]},
    {"target": "human RIP1 kinase domain (2-375) (Homo sapiens (Human), UniProt Q13546)", "experiment": "biochemical", "assay_type": "biochemical", "details": "human RIP1 kinase domain (2-375), 50 uM ATP, 2 hours incubation, Transcreener ADP assay; read-out: RIP1 Ki", "how_it_was_run": "as §1", "values": [
      {"smiles": "CN1C(=O)[C@@H](NC(=O)c2n[nH]c3ccc(C#N)cc23)COc2ccccc21", "note": "[Example 83, (S)-5-cyano-N-(5-methyl-4-oxo-2,3,4,5-tetrahydrobenzo[b][1,4]oxazepin-3-yl)-1H-indazole-3-carboxamide]", "pKi": 6.78},
      {"smiles": "CN1C(=O)C(NC(=O)c2ncn(Cc3ccccc3)n2)CCn2nc3c(c21)CSC3", "note": "(centres unmarked) [Example 142, 1-benzyl-N-(1-methyl-2-oxo-1,2,3,4,5,10-hexahydro-8H-thieno[3′,4′:3,4]pyrazolo[1,5-a][1,3]diazepin-3-yl)-1H-1,2,4-triazole-3-carboxamide]", "pKi": 7.18},
      {"smiles": "CN1C(=O)[C@@H](NC(=O)c2n[nH]c3ccc(C4CC4)cc23)COc2ccccc21", "note": "[Example 92, (S)-5-cyclopropyl-N-(5-methyl-4-oxo-2,3,4,5-tetrahydrobenzo[b][1,4]oxazepin-3-yl)-1H-indazole-3-carboxamide]", "pKi": 7.89},
      {"smiles": "CN1C(=O)[C@@H](NC(=O)c2ncn3ccc(C(F)(F)F)nc23)COc2ccccc21", "note": "[Example 193, (S)—N-(5-methyl-4-oxo-2,3,4,5-tetrahydrobenzo[b][1,4]oxazepin-3-yl)-2-(trifluoromethyl)imidazo[1,5-a]pyrimidine-8-carboxamide]", "pKi": 7.24},
      {"smiles": "CN1C(=O)[C@@H](NC(=O)c2nnc3cnc(C(F)(F)F)cn23)COc2ccccc21", "note": "[Example 200, (S)—N-(5-methyl-4-oxo-2,3,4,5-tetrahydrobenzo[b][1,4]oxazepin-3-yl)-6-(trifluoromethyl)-[1,2,4]triazolo[4,3-a]pyrazine-3-carboxamide]", "pKi": 5.77},
      {"smiles": "CN1C(=O)C(NC(=O)c2ncn(Cc3ccccc3)n2)CCn2nc3c(c21)CCCC3", "note": "(centres unmarked) [Example 136, 1-benzyl-N-(1-methyl-2-oxo-2,3,4,5,8,9,10,11-octahydro-1H-[1,3]diazepino[1,2-b]indazol-3-yl)-1H-1,2,4-triazole-3-carboxamide]", "pKi": 6.96},
      {"smiles": "CCn1nc(C(=O)N[C@H]2COc3ccccc3N(C)C2=O)c2c1CC[C@H](C(F)(F)F)C2", "note": "(single isomer, unassigned) [Example 185]", "pKi": 6.08}
    ]},
    {"target": "human RIP1 kinase domain (2-375) (Homo sapiens (Human), UniProt Q13546)", "experiment": "biochemical", "assay_type": "biochemical", "details": "human RIP1 kinase domain (2-375), Transcreener ADP assay, 50 uM ATP, 2 hours incubation; read-out: RIP1 Ki", "how_it_was_run": "as §1", "values": [
      {"smiles": "Cc1cc2n(n1)CC[C@H](NC(=O)c1nnc(Cc3ccccc3)[nH]1)C(=O)N2C", "note": "[Example 240, (S)-5-benzyl-N-(2,4-dimethyl-5-oxo-5,6,7,8-tetrahydro-4H-pyrazolo[1,5-a][1,3]diazepin-6-yl)-4H-1,2,4-triazole-3-carboxamide]", "pKi": 7.07},
      {"smiles": "CC(C)c1cnc2[nH]nc(C(=O)N[C@H]3COc4ccccc4N(C)C3=O)c2c1", "note": "[Example 238, (S)-5-isopropyl-N-(5-methyl-4-oxo-2,3,4,5-tetrahydrobenzo[b][1,4]oxazepin-3-yl)-1H-pyrazolo[3,4-b]pyridine-3-carboxamide]", "pKi": 7.26},
      {"smiles": "CC[C@@]1(C)OCc2cnc(C(=O)N[C@H]3CCn4nc(C)cc4N(C)C3=O)cc21", "note": "[Example 275, (R)—N—((S)-2,4-dimethyl-5-oxo-5,6,7,8-tetrahydro-4H-pyrazolo[1,5-a][1,3]diazepin-6-yl)-1-ethyl-1-methyl-1,3-dihydrofuro[3,4-c]pyridine-6-carboxamide]", "pKi": 5.96}
    ]},
    {"target": "human RIP1 kinase domain (2-375) (Homo sapiens (Human), UniProt Q13546)", "experiment": "biochemical", "assay_type": "biochemical", "details": "tight-binding apparent inhibition constant; human RIP1 kinase domain (2-375) 50 nM, 50 uM ATP, 2 hours; read-out: Ki", "how_it_was_run": "as §1", "values": [
      {"smiles": "CN1C(=O)[C@@H](NC(=O)c2nc3n(n2)C(c2ccccc2)CCC3)CCn2nccc21", "note": "(stereo partly drawn) [Example 380, N—((S)-4-methyl-5-oxo-5,6,7,8-tetrahydro-4H-pyrazolo[1,5-a][1,3]diazepin-6-yl)-5-phenyl-5,6,7,8-tetrahydro-[1,2,4]triazolo[1,5-a]pyridine-2-carboxamide]", "pKi": 6.81},
      {"smiles": "CCC[C@]1(C)OCc2cnc(C(=O)N[C@H]3COc4ccccc4N(C)C3=O)nc21", "note": "(mixture of isomers) [Example 683, (7S)-7-methyl-7-propyl-N-[rac-(3S)-5-methyl-4-oxo-2,3-dihydro-1,5-benzoxazepin-3-yl]-5H-furo[3,4-d] pyrimidine-2-carboxamide]", "pKi": 7.96},
      {"smiles": "COc1ccccc1Cn1cnc(C(=O)N[C@H]2CCn3nccc3N(C)C2=O)n1", "note": "[Example 587, 1-[(2-methoxyphenyl)methyl]-N-(6S)-4-methyl-5-oxo-7,8-dihydro-6H-pyrazolo[1,5-a][1, 3]diazepin-6-yl-1,2,4-triazole-3-carboxamide]", "pKi": 7.33},
      {"smiles": "Cc1cc2n(n1)CC[C@H](NC(=O)c1nc3n(n1)CCC31CCOC1)C(=O)N2C", "note": "(stereo partly drawn) [Example 646, N-[(6S)-2,4-dimethyl-5-oxo-7,8-dihydro-6H-pyrazolo[1,5-a][1,3]diazepin-6-yl]spiro[5,6-dihydropyrrolo[1,2-b][1,2,4]triazole-7,3′-tetrahydrofuran]-2-carboxamide]", "pKi": 5.03},
      {"smiles": "Cc1cc2n(n1)CC[C@H](NC(=O)c1ncc3cnn(C(C)C)c3n1)C(=O)N2C", "note": "[Example 539, 1-isopropyl-N-[(6S)-2,4-dimethyl-5-oxo-7,8-dihydro-6H-pyrazolo[1,5-a][1,3]diazepin-6-yl]pyrazolo[3,4-d]pyrimidine-6-carboxamide]", "pKi": 6.82},
      {"smiles": "CN1C(=O)[C@@H](NC(=O)c2nc3n(n2)[C@H](c2ccccc2)CC3)COc2ccccc21", "note": "(single isomer, unassigned) [Example 613]", "pKi": 7.15},
      {"smiles": "Cc1cc2n(n1)CC[C@H](NC(=O)c1ncn(Cc3ccccc3)n1)C(=O)N2", "note": "[Example 586]", "pKi": 7.20},
      {"smiles": "CCc1cc2n(n1)CCC(NC(=O)c1ncn(Cc3ccccc3)n1)C(=O)N2C", "note": "(centres unmarked) [Example 460, 1-Benzyl-N-(2-ethyl-4-methyl-5-oxo-5,6,7,8-tetrahydro-4H-pyrazolo[1,5-a][1,3]diazepin-6-yl)-1H-1,2,4-triazole-3-carboxamide]", "pKi": 7.39},
      {"smiles": "CN1C(=O)[C@@H](NC(=O)c2ncn(CC3CCC(F)(F)C3)n2)CCn2nc(C3CC3)cc21", "note": "(some centres unmarked) [Example 594]", "pKi": 6.38},
      {"smiles": "Cc1cc(F)c2c(c1)OC[C@H](NC(=O)c1nc3n(n1)[C@H](C(F)(F)F)CCC3)C(=O)N2", "note": "(single isomer, unassigned) [Example 428]", "pKi": 8.09},
      {"smiles": "CC(C)c1cccc2nc(C(=O)N[C@H]3COc4ccccc4N(C)C3=O)nn12", "note": "[Example 406, (S)-5-isopropyl-N-(5-methyl-4-oxo-2,3,4,5-tetrahydrobenzo[b][1,4]oxazepin-3-yl)-[1,2,4]triazolo[1,5-a]pyridine-2-carboxamide]", "pKi": 8.33},
      {"smiles": "CN1C(=O)[C@@H](NC(=O)c2ncn(Cc3cccc(F)c3)n2)CCn2nc(C3CC3)cc21", "note": "[Example 531]", "pKi": 7.85},
      {"smiles": "CN1C(=O)[C@@H](NC(=O)c2nc3n(n2)[C@H](C(F)(F)F)CCC3)COc2ccccc21", "note": "(racemic) [Example 426, (S)—N—((S)-5-methyl-4-oxo-2,3,4,5-tetrahydrobenzo[b][1,4]oxazepin-3-yl)-5-(trifluoromethyl)-5,6,7,8-tetrahydro-[1,2,4]triazolo[1,5-a]pyridine-2-carboxamide]", "pKi": 7.86},
      {"smiles": "CN1C(=O)[C@@H](NC(=O)c2nc3cccc(C4=CCOCC4)n3n2)CCn2nccc21", "note": "[Example 395, (S)-5-(3,6-dihydro-2H-pyran-4-yl)-N-(4-methyl-5-oxo-5,6,7,8-tetrahydro-4H-pyrazolo[1,5-a][1,3]diazepin-6-yl)-[1,2,4]triazolo[1,5-a]pyridine-2-carboxamide]", "pKi": 6.98},
      {"smiles": "Cc1cc2n(n1)CC[C@H](NC(=O)c1nc3n(n1)[C@H](c1ccccc1F)CC3)C(=O)N2C", "note": "[Example 667, (5S)-5-(2-fluorophenyl)-N-[(6S)-2,4-dimethyl-5-oxo-7,8-dihydro-6H-pyrazolo[1,5-a][1,3]diazepin-6-yl]-6,7-dihydro-5H-pyrrolo[1,2-b][1,2,4]triazole-2-carboxamide]", "pKi": 6.28},
      {"smiles": "O=C(N[C@H]1CCc2cc(F)cc(F)c2NC1=O)c1nc2n(n1)CCO[C@H]2c1ccccc1F", "note": "[Example 630, (8S)-8-(2-fluorophenyl)-N-[(3S)-7,9-difluoro-2-oxo-1,3,4,5-tetrahydro-1-benzazepin-3-yl]-6,8-dihydro-5H-[1,2,4]triazolo[5,1-c][1,4]oxazine-2-carboxamide]", "pKi": 7.52}
    ]}
  ]
}
